Measured values taken from US11173177B2, “Compounds for treatment of lipoprotein metabolism disorders” (Aarhus Universitet, priority 2016, dated 2021).

Assays:
[1] = system: PCSK9; experiment: Heparin-sepharose binding assay (free PCSK9 by ELISA); set-up: species or system human; settings: 500-200 μg/ml, PCSK9 1 μg/ml, over night 4° C.
Protocol: Compound (X) inhibition of PCSK9 binding to Heparin/Heparan sulfate was tested in a Heparin-sepharose binding assay. Heparin-sepharose beads (2 μl) were incubated with PCSK9 (1 μg/ml) with increasing concentrations of compound (X) (0-500 μg/ml) in a total volume of 150 μl 10 mM NaH2PO4. After over night rotation at 4° C., beads were pelleted and the concentration of non-precipitated PCSK9 (free PCSK9) in supernatant was evaluated by ELISA. The concentration of free PCSK9 in each sample was normalised to the PCSK9 level in a sample without Heparin-sepharose beads (input control). As positive control was included a sample with soluble heparin (5 mg/ml) (FIG. 16 A).
Sucrose octasulfate (FIG. 21A) inhibition of PCSK9 binding to Heparin/Heparan sulfate was tested in a Heparin-sepharose binding assay. Heparin-sepharose beads (2 μl) were incubated with PCSK9 (1 μg/ml) and increasing concentrations of sucrose octasulfate (0-500 μg/ml) in a total volume of 150 μl 10 mM NaH2PO4. After over night rotation at 4° C., beads were pelleted and the concentration of non-precipitated PCSK9 (free PCSK9) in supernatant was evaluated by ELISA). Percent free PCSK9 was calculated with respect to the PCSK9 concentration in a sample without Heparin-sepharose beads (input control) (FIG. 21B).

[2] = target: PCSK9; experiment: BIACORE interference assay, PCSK9 binding to heparin-albumin sensor chip; set-up: species or system human; settings: 100 nM PCSK9 preincubated with 0 nM-10 μM compound; read-out: estimated IC50, inhibition of PCSK9 binding to heparin-albumin sensor chip
Protocol: BIACORE analysis using sensor chips coupled with either albumin (Sigma A4503) or heparin-albumin (Sigma H0403) were used to evaluate the interaction between PCSK9 and heparin. […] An interference assay using BIACORE analysis was implemented to assess the binding between compound (X) and PCSK9. Solutions of 100 nM PCSK9 was incubated with increasing concentrations of compound (X) (0 nM, 10 nM, 100 nM, 1 μM and 10 μM), the solutions were then infused over the sensor chip coupled with heparin-albumin.

[3] = system: liver LDLR; experiment: Liver LDLR levels in mice after intravenous PCSK9 injection (Western blot); assay type: in vivo; settings: inhibitor i.v. 60 min prior PCSK9 (10 μg); compound (X) 0.13 mg/kg, Evolocumab 8 mg/kg; PCSK9 without inhibitor: 50% decrease
Protocol: To test the effect of enzymatic removal of heparan sulfate GAGs on PCSK9 activity in vivo 10-12 week-old male BALB6/cJRj mice were infused with heparinase I (30 U) administered through a tail vein catheter 5 min prior injection of PCSK9 (10 μg). In control mice the heparinase injection and/or the PCSK9 injection were replaced with an injection of 0.9% saline. During heparinase infusion, mice were lightly anaesthetized with isoflurane continuously administered through a mask.
Mice (BALB6/cJRj) were subjected to a single intravenous administration (tail vein) of 10 μg human recombinant PCSK9 alone or in combination with heparin (50 U). One hour post injection mice were sacrificed and liver tissues were collected.
Mice (BALB6/cJRj) were subjected to a single intravenous (tail vein) administration of 3.2 μg compound (X) 60 minutes prior injection with PCSK9 (10 μg). PCSK9 induced degradation of liver LDLR was assessed 60 min post PCSK9 injection by Western blotting and quantified by densitometry (FIG. 16 C). Control mice were injected with NaCl or control inhibitor Evolocumab (200 μg), commercially available PCSK9 inhibitory monoclonal antibody (Amgen). LDLR levels were calculated with respect to LDLR level in mice injected with NaCl alone.

[4] = system: LDLR in HepG2 cells; experiment: LDLR levels in HepG2 cells by Western blotting and densitometry; assay type: cell-based, human; settings: 0-200 μg/ml, 24 h
Protocol: In the heparin mimetic class of modified polysaccharides compounds dextran sulfate (FIG. 9 A-B) and pentosan (FIG. 9 D-E) were tested in a HepG2 based in vitro cell assay. After overnight incubation LDLR levels were evaluated by Western blotting showing a concentration dependent increase of LDLR upon treatment with dextran sulfate (0-200 μg/ml) with up to 3-fold up regulation of LDLR.
Control cells were incubated without additives (negative control) or 500 μg/ml heparin (positive control). LDLR levels were calculated with respect to the level found in lysate of HepG2 cells incubated without additives.
HepG2 cells were incubated with 0-200 μg/ml of heterogeneously sulfated hexamer or 18-mer oligosaccharides containing on average 1,3 sulfates per disaccharide. After over night incubation cells were harvested and the cellular level of LDLR was analyzed by Western blotting (FIG. 17 A) and quantified by densitometry (FIG. 17 B).

`CC(C)CCC[C@@H](C)[C@H]1CC[C@H]2[C@@H]3CC[C@H]4C[C@@H](O[C@@H]5O[C@H](COS(=O)(=O)[O-])[C@@H](O[C@H]6O[C@H](COS(=O)(=O)[O-])[C@@H](O[C@H]7O[C@H](COS(=O)(=O)[O-])[C@@H](O[C@H]8O[C@H](COS(=O)(=O)[O-])[C@@H](OS(=O)(=O)[O-])[C@H](OS(=O)(=O)[O-])[C@H]8OS(=O)(=O)[O-])[C@H](OS(=O)(=O)[O-])[C@H]7OS(=O)(=O)[O-])[C@H](OS(=O)(=O)[O-])[C@H]6OS(=O)(=O)[O-])[C@H](OS(=O)(=O)[O-])[C@H]5OS(=O)(=O)[O-])CC[C@]4(C)[C@H]3CC[C@]12C.[Na+].[Na+].[Na+].[Na+].[Na+].[Na+].[Na+].[Na+].[Na+].[Na+].[Na+].[Na+].[Na+]` [compound (X), 3β-cholestanyl 2,3,4,6-tetra-O-sulfo-α-D-glucopyranosyl-(1→4)-2,3,6-tri-O-sulfo-α-D-glucopyranosyl-(1→4)-2,3,6-tri-O-sulfo-α-Dglucopyranosyl-(1→4)-2,3,6-tri-O-sulfo-β-D-glucopyranoside tridecasodium salt] was tested, and the “inhibition of PCSK9 interaction with Heparin-sepharose” value [1] was “completely inhibited”, the IC50 [2] was about 50 nM and the “decrease of liver LDLR level after PCSK9 injection” value [3] was “no decrease was observed”. For the same compound, the “LDLR levels with respect to cells incubated without additives” value [4] was “up to 12 times” and the “LDLR levels, concentration dependence” value [4] was “concentration dependent increased levels of LDLR”.
